Results taken from US9096882B2, “Method of selecting antioxidants for use in topically applied compositions” (MSD Consumer Care, Inc., priority 2008, dated 2015).

Experiments:
[1] = DPPH (α,α-diphenyl-β-picrylhydrazyl) free radical test; format: biochemical; details: 20 min, 30° C., absorbance 517 nm
Experimental: DPPH is a stable free radical that when dissolved in solution forms an intense purple color. […] The extent to which the color fades can be easily measured and used to rank the relative effectiveness of different materials purported to have antioxidant properties.
Measurements were recorded for antioxidant raw materials in simple methanol solutions. Samples were prepared by dissolving antioxidants at various concentrations in methanol. After sample preparation, 125 μl of the sample or pure methanol as a control were pipetted into sample test tubes followed by 2 ml of methanol and vortexed. Then 2 ml of DPPH stock solution (0.25 mM in methanol) was added to each tube (giving a total volume of 4.125 ml for each sample) and vortexed. Immediately after addition of DPPH, test tubes were covered and placed into a 30° C. water bath for 20 minutes. After the 20 minute incubation, the absorbance of each sample was recorded at 517 nm using a Perkin Elmer Lambda 40 spectrophotometer. All samples were prepared in triplicate and their mean absorbance values were used to express the efficacy of antioxidants at various concentrations in terms of antioxidant reducing units (ARU) by using the following equation: ARU=(Absorbance Methanol Control−Absorbance sample)×10 ARU values range in magnitude from 0 for “no” efficacy to about 15 for raw materials that have high antioxidant efficacy.

[2] = tested on: UV-induced ROS in EpiDerm™ Skin Model (human-derived epidermal keratinocytes); experiment: Two photon fluorescence microscopy on EpiDerm Skin Model (UV-induced ROS down to the basal layer); format: cell-based; details: result in words (FIG. 4)
Experimental: Two photon fluorescence microscopy was then conducted on a formulation containing Vitamin E and Emblica to determine ability to inhibit formation of ROS. The methods used were similar to those as described above, using confocal microscopy to visualize cells at different depths within intact pieces of skin and then fluorescence to quantify the extent of ROS formation. In the present experiment, however, instead of using human breast skin, the skin used was the EpiDerm™ Skin Model (MatTek Corporation, Mass. USA), which consists of normal, human-derived epidermal keratinocytes which have been cultured to form a multilayered, highly differentiated model of the human epidermis. […]
Prior to UVR exposure, pieces of EpiDerm™ skin were treated with dihydrorhodamine, which partitions throughout the aqueous and lipid regions of the tissue. […] The fluorescence is subsequently detected and quantified to provide an indication of the level of UV-induced ROS formed in deeper layers of the skin. By applying antioxidants topically before irradiation ROS formation can be measured and compared to the ROS formed after a placebo lotion without antioxidants was applied to the skin. In this way, the efficacy of antioxidants to neutralize ROS within deeper layers of the skin can be measured and their relative efficiencies established. […]

[3] = tested on: human skin lipids; experiment: Ex vivo tape strip method: inhibition of UVR-induced lipid peroxidation (LOOH); format: biochemical; details: for % Inhibition of LOOH: tape strips irradiated 10 joules/cm^2 UVR, vs placebo lotion
Description: To determine if antioxidants (Aox) maintain their effectiveness on skin in the presence of UVR, we devised a novel and more relevant model that utilizes human skin lipids as substrates for UVR-induced peroxidation. Lipids removed from skin on broad pieces of tape serve as the substrates for subsequent exposure to UVR. By applying a standard lotion with or without Aox to skin prior to tape-stripping, skin lipids can be collected on tape strips in the presence or absence of Aox that essentially maintains the same proximity that lipids and Aox had on skin. Following UVR exposure, the extent to which the presence of Aox protect lipids against peroxidation from ROS can be measured relative to lipids in the absence of antioxidants.
Human volunteers were recruited for the test and asked not to apply any products to their arms for at least two days before the test Prior to any product treatments, inner aspects of subjects' left and right forearms were wiped with a Kimwipe™ moistened with isopropanol to remove any residues that might be on the surface of the skin. Arms were wiped only once applying gentle pressure and then allowed to dry at least 10 minutes before proceeding. A template (90 mm×50 mm) was positioned on each inner forearm such that two areas could be clearly delineated. Using a superfine tip Sharpie™ pen, a mark was placed at each corner of the template to outline each application site, with two sites delineated per forearm. Using a fingercot, either placebo or antioxidant lotion was applied (100 mg) to a delineated site on a forearm. Care was taken to insure that products were applied evenly within the entire application area. After application, sites were allowed to air-dry for 30 minutes during which subjects were instructed not to allow any clothing to come into contact with test areas.
After lotions dried for 30 minutes, each site was tape-stripped using a 4.0 inch piece of Scotch® Brand No. 800 Prescription Label tape (1.5 inches wide). […] The piece of tape was positioned over a site and then using a finger the tape was gently pressed onto the skin to make good contact. […]
Each tape extract was assayed for total LOOH content using a Lipid Hydroperoxide Assay Kit (Kamiya Biomedical Company, Thousand Oaks, Calif.) following manufacturer's directions. Lipid hydroperoxides were then quantitated by measuring methylene blue formation at 675 nm using a spectrophotometer. Standard curves were prepared using cumene hydroperoxide and were linear over the range of LOOH detected in these experiments. […]
The extent to which antioxidant (Aox) or placebo lotions inhibited UVR-induced lipid hydroperoxide (LOOH) formation was calculated by inserting the values of LOOH determined from the four application sites on each volunteer into the following equation: […]

CC1(C)CC[C@]2(C(=O)O)CC[C@]3(C)C(=CC[C@@H]4[C@@]5(C)C[C@@H](O)[C@H](O)[C@@](C)(CO)[C@@H]5CC[C@]43C)[C@@H]2C1 [Arjunolic acid (1%), Arjunolic acid]
ARU (antioxidant reducing units) ([1]; level 1.0% in methanol): 0.4 ARU

CCCCC(CC)COC(=O)C(=Cc1cc(OC)c(O)c(OC)c1)C(=O)OCC(CC)CCCC (stereo not shown) [Diethylhexyl syringylidene malonate]
ARU (antioxidant reducing units) ([1]; level 1.0% in methanol): 5.7 ARU | antioxidant or pro-oxidant behaviour within skin exposed to UVR [2]: maintains its antioxidant capability

C[N+](C)(C)[C@@H](Cc1c[nH]c(=S)[nH]1)C(=O)[O-] [Ergothiotaine]
ARU (antioxidant reducing units) ([1]; level 0.1% in methanol): 0.0 ARU

Cc1c(C)c2c(c(C)c1O)CCC(C)(CCCC(C)CCCC(C)CCCC(C)C)O2 (stereo not drawn) [Vitamin E, dl alpha tocopherol]
ARU (antioxidant reducing units) ([1]; level 0.5% in methanol): 6.5 ARU | % Inhibition of LOOH ([3]; 0.05% in lotion): −3.40% | % Inhibition of LOOH ([3]; 0.10% in lotion): 28.4% | % Inhibition of LOOH ([3]; 0.25% in lotion): 61.0% | protection of skin lipids against UVR-induced peroxidation (FIG. 1) ([3]; result in words, FIG. 1): protects skin lipids in a dose dependant manner

CC(=O)N[C@@H](CS)C(=O)O [n-Acetyl cysteine]
ARU (antioxidant reducing units) ([1]; level 0.1% in methanol): 9.9 ARU
